What was measured:
[1] = system: cultured mouse hippocampal neurons; test: Cell culture model of epilepsy: kynurenic acid (Kyn) withdrawal-induced seizure-like activity, current-clamp recording; assay type: cell-based
Source text: We hypothesized that ASICs are involved in seizure propagation. Using the Furshpan and Potter cell culture model of epilepsy (Meller et al., 2003; Furshpan et al., 1998), we tested ASIC blockade in mouse hippocampal neurons cultured with the glutamate antagonist kynurenate (Kyn) and elevated Mg^2+. In the presence of Kyn, the majority of hippocampal neurons remained quiescent. […] Without amiloride, Kyn withdrawal-induced sustained depolarization of 39.5±2.1 mV and paroxysmal bursts at 4.0±0.5 Hz. With 30 μM amiloride, membrane depolarization was reduced to 28.6±2.7 mV (p<0.05, n=5) and burst activity reduced to 2.5±0.4 Hz (p<0.01, FIGS. 3C and 3D). Similarly, application of PcTX1 reduced membrane depolarization from 30.2±3.7 mV to 10.7±1.8 mV (n=8, p<0.01) and burst activity from 5.5±0.6 Hz to 1.2±0.3 Hz (n=9, p<0.01, FIGS. 3C, 3D, and 4).
Cell culture model of epilepsy. Long term cell culture model of epilepsy was performed as described (Furshpan et al., 1989; Meller et al., 2003). Briefly, hippocampal neurons prepared from 1-2 day-old C57BL/6 mice cultured in Neurobasal-A/B27 media supplemented with 10 mM Kyn and 5 mM MgCl2. Culture media was replenished with fresh kynurenic acid/Mg^2+ every 3 days. Cells were used for patch-clamp recording after 3 to 4 weeks. Following the formation of a tight seal in a whole-cell configuration, neurons were current-clamped at ˜−60 mV. In the presence of Kyn, the majority of hippocampal neurons remained quiescent. […] The spontaneous electrical behavior of the culture has many of the characteristics of seizure activity in an intact cortex. This system allows seizure-related cellular mechanisms to be studied in long-term cell culture.
Patch clamp techniques. Whole-cell voltage-clamp and current-clamp recordings were performed as described in our previous studies (Xiong et al., 2004). Patch electrodes were constructed from thin-welled borosilicate glass (1.5 mm diameter, WPI, Sarasota, Fla., USA) on a two-stage puller (PP83 Narishige, Tokyo). The resistances of patch electrodes were 1.5-3 MΩ when filled with the intracellular solution (see below). Whole-cell currents were recorded using Axopatch 200B amplifiers with pCLAMP software (Axon Instruments, CA, USA). Data were filtered at 2 kHz and digitized at 5 kHz using Digidata 1322 (Axon Instruments). During each experiment, a voltage step of −10 mV was applied periodically to monitor the cell capacitance and the access resistance. A multi-barrel perfusion system (SF-77, Warner Instrument Co., Conn., USA) was employed to achieve a rapid exchange of solutions. All experiments were performed at room temperature (22-24° C.).

[2] = target: T1, ASICs (Mus musculus, UniProt Q6NXK8); test: Acid (pH 7.0/7.1)-induced membrane depolarization and neuronal firing, current-clamp recording; assay type: cell-based
T1 construct: Primary neuronal cultures were prepared from embryonic Swiss mice at 15 to 16 days of gestation; endogenous in cells
T1 sequence (Q6NXK8 1-526): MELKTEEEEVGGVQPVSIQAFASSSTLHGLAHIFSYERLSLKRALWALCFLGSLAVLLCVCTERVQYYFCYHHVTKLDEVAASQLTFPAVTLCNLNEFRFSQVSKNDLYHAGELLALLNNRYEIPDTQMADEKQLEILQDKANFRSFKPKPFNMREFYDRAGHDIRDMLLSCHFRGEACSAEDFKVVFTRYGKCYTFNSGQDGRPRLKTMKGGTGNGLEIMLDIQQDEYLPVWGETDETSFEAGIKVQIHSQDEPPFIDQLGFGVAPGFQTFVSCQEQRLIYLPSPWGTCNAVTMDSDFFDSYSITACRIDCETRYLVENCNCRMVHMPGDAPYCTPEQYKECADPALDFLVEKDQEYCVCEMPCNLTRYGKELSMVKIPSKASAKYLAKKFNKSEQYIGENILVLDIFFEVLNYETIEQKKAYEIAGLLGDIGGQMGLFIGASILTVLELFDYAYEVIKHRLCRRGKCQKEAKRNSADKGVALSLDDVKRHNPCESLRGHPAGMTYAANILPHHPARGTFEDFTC
Source text: Unlike ischemia, only moderate pH changes (e.g., ˜0.3 pH unit) are reported in brain parenchyma during seizures (Chesler et al., 1988: Chesler et al., 1992), although pH in the synaptic cleft may be much lower (Chesler et al., 1992; Wemmie et al., 2006). […] One possibility is that voltage-clamp recording has relatively low sensitivity to resolve small current in whole-cell configuration. To provide more evidence that the decreases of pHo to the level seen in epilepsy can indeed activate the ASICs and cause neuronal excitation, we have also used current-clamp recording to study changes of membrane depolarization and neuronal firing by small changes of pHo. Due to the large input resistance of most CNS neurons (e.g., ˜500 MΩ), even a small membrane current (e.g., 10-20 pA, which is difficult to resolve in voltage-clamp recording in general) can induce significant membrane depolarization in current-clamp conditions. Mouse cortical neurons were used for current-clamp recordings 14 days after the culture.
Cortical neuronal culture. Primary neuronal cultures were prepared from embryonic Swiss mice at 15 to 16 days of gestation according to our previously described techniques (Xiong et al., 2004). In brief, cerebral cortices from 10 to 12 embryos were dissected and incubated with 0.05% trypsin-EDTA for 10 min, dissociated by trituration with a fire-polished glass pipette, and plated on poly-L-ornithine-coated culture dishes at a density of 0.5×10^6 cells per dish. Neurons were cultured with Neurobasal medium supplemented with B27 (Invitrogen). The cultures were maintained at 37° C. in a humidified 5% CO2 atmosphere incubator and were used for experiments after 12-14 days.
Patch clamp techniques. Whole-cell voltage-clamp and current-clamp recordings were performed as described in our previous studies (Xiong et al., 2004). […] Whole-cell currents were recorded using Axopatch 200B amplifiers with pCLAMP software (Axon Instruments, CA, USA). […]

[3] = 30 μM amiloride, perfused 2 min before and during Kyn withdrawal
[4] = PcTX1 (venom 200 ng/mL total protein per FIG. 4 legend)

Compound | Kyn withdrawal-induced paroxysmal burst activity (frequency) [1, 3] | Kyn withdrawal-induced sustained membrane depolarization [1, 3] | effect on acid-induced neuronal excitation (membrane depolarization, firing rate) ([2]; pH 7.0, amiloride 100 μM or synthetic PcTX1 20 nM) | Kyn withdrawal-induced burst activity (frequency) [1, 4] | Kyn withdrawal-induced membrane depolarization [1, 4] | effect on acid-induced depolarization and firing of action potentials ([2]; pH 7.1)
NC(N)=NC(=O)c1nc(Cl)c(N)nc1N [amiloride, 3,5-diamino-6-chloro-N(diaminomethylidene)pyrazine-2-carboxamide] | 2.5±0.4 Hz | 28.6±2.7 mV | largely and significantly reduced |  |  | 
Psalmotoxin 1 [PcTX1] |  |  |  | 1.2±0.3 Hz | 10.7±1.8 mV | sensitive to PcTX1 inhibition

Source: patent US7892764B2, “System for seizure suppression” (priority 2006, dated 2011)
